# Experiments:
# [1] = target: DAT: dopamine transporter (Homo sapiens, UniProt Q01959); set-up: method as in PMID 27309376; conditions: [3H] WIN35428; literature values; cited from earlier work
# [2] = target: NET: norepinephrine transporter (Homo sapiens, UniProt P23975); set-up: method as in PMID 27309376; conditions: [3H] nisoxetine; literature values; cited from earlier work
# σ1 receptor [3] = target: T1, σ1 receptor (Cavia porcellus, UniProt Q60492); experiment: Radioligand binding at σ1 receptor ([3H]-(+)-pentazocine, NIMH PDSP); set-up: species or system Guinea pig; conditions: ratio of Ki σ2 to Ki σ1
# T1 construct: σ1 receptor, [^3H]-(+)-pentazocine, Guinea pig brain homogenate; from tissue; host or cells: Guinea pig brain homogenate
# T1 sequence (Q60492 whole entry): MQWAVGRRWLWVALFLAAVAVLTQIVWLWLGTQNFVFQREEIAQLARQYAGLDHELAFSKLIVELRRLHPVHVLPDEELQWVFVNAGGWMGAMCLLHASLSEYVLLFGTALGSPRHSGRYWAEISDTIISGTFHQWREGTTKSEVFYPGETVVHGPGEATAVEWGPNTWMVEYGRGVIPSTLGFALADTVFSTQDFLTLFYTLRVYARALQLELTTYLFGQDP
# From the text: In this study, [^3H] pentazocine and [^3H]DTG (6) were used as the radioligands at σ1 and σ2 receptors. Firstly, we examined the effects of changing the substituents on the benzene ring. […] Mono-halogen substitution on the benzene ring exemplified by compounds 17–20 generally retained affinity for σ1 receptor compared with compound 7. […] The derivatives 21–25 also maintained similar high affinities for the σ1 receptor upon incorporation of two halogen atoms on the benzene ring. However, this is also accompanied with higher binding affinity to the σ2 receptor. […]. Next, we examined the effects of removing the methyl group on the basic nitrogen atom. […] […]. […] The results for the secondary amines 28 and 29 indicate that the hydrogen bond donor on basic nitrogen atom was beneficial for increased binding affinity to the σ1 receptor.
# Radioligand competition studies were carried out by the National Institute of Mental Health's Psychoactive Drug Screening Program, Contract #HHSN-271-2008-00025-C (NIMH PDSP). The general procedures are listed as follows:
# All the test compounds solution (1 mg mL^−1) were prepared by dissolving in DMSO or buffer solvent (50 mM Tris–HCl, pH = 8.0). The filter-mats were presoaked in 0.5% aqueous polyethyleneimine solution for 2 h at rt before use. All binding experiments were carried out in poly-L-lysine-coated 96-well plate and the final test concentration (50 μM, 5 μM, 1.5 μM, 500 nM, 150 nM, 50 nM, 15 nM, 5 nM, 1.5 nM, 0.5 nM, 0.05 nM) were prepared by addition of Tris–HCl solution (50 mM, pH = 8.0). The following specific radioligands and tissue source were used: (a) σ1 receptor, [^3H]-(+)-pentazocine, Guinea pig brain homogenate; (b) σ2 receptor, [^3H]-DTG, PC-12 cells. 100 μL of corresponding radioligand solution, 100 μL test compound solution and 50 μL of the respective receptor preparation into each well of the plate (total volume 250 μL). During the incubation, the plates were shaken at a speed of 500–600 rpm at the specified temperature (σ1 receptor, 37 °C, 150 min; σ2 receptor, rt, 120 min). The incubation was followed by a rapid vacuum filtration through Whatman GF/B glass filters, and the filtrates were washed twice with 10 mL of cold buffer and transferred to the 6 mL scintillation vials. EcoScint scintillation fluid (4.0 mL) was added, and the radioactivity bound was measured using a Beckman LS 6500 liquid scintillation counter. All experiments were performed at least three times.
# For experimental details please refer to the PDSP website http://pdsp.med.unc.edu/.[28]
# PC12 cells = experiment: NGF-induced neurite outgrowth in PC-12 cells; type: cell-based, rat; conditions: 10 μM compound with NGF 2.5 ng mL−1, four days
# Experimental: PC-12 cells, from rat pheochromocytoma cell lines, were obtained from the American Type Culture Collection (ATCC, Manassas, VA, USA). Undifferentiated PC12 cells were cultured in DMEM complete medium with 10% heat-inactivated horse serum, 5% fetal bovine serum, 100 U mL^−1 penicillin, and 100 μg mL^−1 streptomycin and maintained at 37 °C in a humidified incubator supplemented with 5% CO2. To induce differentiation, PC12 cells were seeded at a density of 1 × 10^4 cells per mL on a poly-L-lysine-coated 96-well plate and cultured in complete medium containing 2.5 ng mL^−1 NGF or different tested compounds (10 μM) concomitant with 2.5 ng mL^−1 NGF administration. Four days after incubation, morphometric analysis was performed on digitized images of live cells taken under phase contrast illumination with an inverted microscope linked to a camera. Images of five fields per well were taken with an average of 20 cells per field. The number of differentiated cells was determined by counting cells that had at least one neurite with a length equal to the cell body diameter and was expressed as a percentage of the total cells in the field. The counting was performed in a blinded manner. All experiments were performed at least five times.
# σ1 receptor [4] = target: T1, σ1 receptor; set-up: method as in PMID 27309376; conditions: [3H]-(+)-pentazocine; Guinea pig homogenate; compound 7 value from the literature; cited from earlier work
# [5] = target: SERT: serotonin transporter (Homo sapiens, UniProt P31645); set-up: method as in PMID 27309376; conditions: [3H] citalopram; literature values; cited from earlier work
# SERT: serotonin transporter, sequence (P31645 whole entry): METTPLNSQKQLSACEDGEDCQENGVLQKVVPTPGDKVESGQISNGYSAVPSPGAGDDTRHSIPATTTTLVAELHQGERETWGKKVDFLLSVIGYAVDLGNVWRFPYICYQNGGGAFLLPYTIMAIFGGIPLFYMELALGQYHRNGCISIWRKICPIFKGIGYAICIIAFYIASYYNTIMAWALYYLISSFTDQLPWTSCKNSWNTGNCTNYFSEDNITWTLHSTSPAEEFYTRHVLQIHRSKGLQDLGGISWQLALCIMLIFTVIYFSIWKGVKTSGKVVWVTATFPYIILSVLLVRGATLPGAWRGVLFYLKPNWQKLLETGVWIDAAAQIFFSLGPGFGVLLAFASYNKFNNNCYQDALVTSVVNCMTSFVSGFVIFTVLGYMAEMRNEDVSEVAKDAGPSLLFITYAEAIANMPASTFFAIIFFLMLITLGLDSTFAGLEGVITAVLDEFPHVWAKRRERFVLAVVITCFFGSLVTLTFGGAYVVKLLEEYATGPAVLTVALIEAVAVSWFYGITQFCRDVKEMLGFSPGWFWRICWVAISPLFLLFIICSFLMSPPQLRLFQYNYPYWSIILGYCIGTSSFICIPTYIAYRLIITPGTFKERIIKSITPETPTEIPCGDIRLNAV
# σ2 receptor = target: σ2 receptor; set-up: method as in PMID 21278085, PMID 15170821, PMID 18647636, PMID 22935988, PMID 21967807; conditions: representative σ1 receptor ligands, Fig. 1; cited from earlier work
# σ1 receptor [6] = target: σ1 receptor; set-up: method as in PMID 21278085, PMID 15170821, PMID 18647636, PMID 22935988, PMID 21967807; conditions: representative σ1 receptor ligands, Fig. 1; cited from earlier work
# DAT: dopamine transporter, sequence (Q01959 whole entry): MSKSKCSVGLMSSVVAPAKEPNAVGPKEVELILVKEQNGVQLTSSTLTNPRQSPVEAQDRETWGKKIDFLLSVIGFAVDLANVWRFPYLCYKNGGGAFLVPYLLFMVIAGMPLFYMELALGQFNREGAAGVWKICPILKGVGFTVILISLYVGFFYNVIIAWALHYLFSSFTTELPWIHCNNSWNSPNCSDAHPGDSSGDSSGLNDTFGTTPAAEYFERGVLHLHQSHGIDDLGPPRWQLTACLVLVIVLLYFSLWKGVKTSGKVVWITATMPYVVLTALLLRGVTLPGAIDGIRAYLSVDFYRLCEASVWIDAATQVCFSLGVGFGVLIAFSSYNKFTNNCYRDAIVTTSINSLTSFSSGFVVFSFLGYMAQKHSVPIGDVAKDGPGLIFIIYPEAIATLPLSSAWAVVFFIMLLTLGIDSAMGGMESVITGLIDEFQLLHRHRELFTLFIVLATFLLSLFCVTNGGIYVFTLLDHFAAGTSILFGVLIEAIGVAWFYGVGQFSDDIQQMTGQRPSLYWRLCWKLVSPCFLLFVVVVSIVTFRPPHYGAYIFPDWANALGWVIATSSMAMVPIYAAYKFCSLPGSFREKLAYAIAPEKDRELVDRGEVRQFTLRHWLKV
# NET: norepinephrine transporter, sequence (P23975 whole entry): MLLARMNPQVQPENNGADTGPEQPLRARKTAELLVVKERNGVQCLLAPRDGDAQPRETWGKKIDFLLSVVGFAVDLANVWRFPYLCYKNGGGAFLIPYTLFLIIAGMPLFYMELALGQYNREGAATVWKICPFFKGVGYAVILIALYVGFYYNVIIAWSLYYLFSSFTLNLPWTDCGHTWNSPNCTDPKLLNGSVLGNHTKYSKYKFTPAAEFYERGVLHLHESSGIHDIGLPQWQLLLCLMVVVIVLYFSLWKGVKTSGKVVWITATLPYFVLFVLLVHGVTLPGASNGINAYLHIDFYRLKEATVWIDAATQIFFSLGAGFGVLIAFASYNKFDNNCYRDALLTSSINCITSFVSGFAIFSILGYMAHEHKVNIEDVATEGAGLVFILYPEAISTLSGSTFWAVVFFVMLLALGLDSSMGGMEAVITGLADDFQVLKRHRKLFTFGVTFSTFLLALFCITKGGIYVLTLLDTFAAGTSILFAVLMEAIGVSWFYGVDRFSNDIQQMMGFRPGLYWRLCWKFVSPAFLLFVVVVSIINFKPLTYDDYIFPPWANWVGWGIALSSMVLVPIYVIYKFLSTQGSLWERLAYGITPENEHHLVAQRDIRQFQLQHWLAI
Selectivity (Ki σ2/Ki σ1) (σ1 receptor [3]),Structure (SMILES),"Ki, DAT [1]","Ki, NET [2]",Effect on NGF-induced neurite outgrowth (PC12 cells),Ki (σ1 receptor [4]),"Ki, SERT [5]",Ki (σ2 receptor),Ki (σ1 receptor [6])
171,CN(CCOc1cc(COc2ccccc2)on1)C1CCC1 [Compound 7],"NA ^c (NA: not active, defined as <50% binding in the primary assay at 10 μM)","NA (NA: not active, defined as <50% binding in the primary assay at 10 μM)",synergistic neurite outgrowth effects at a level similar to that of the positive control RC-33,1.8 ± 0.2 nM,"NA (NA: not active, defined as <50% binding in the primary assay at 10 μM)",–,–
–,CC(CCN1CCCCC1)c1ccc(-c2ccccc2)cc1 (stereo not shown) [RC-33],–,–,–,–,–,103 nM,0.7 nM
–,COc1ccc(CCN2CCN(CCCc3ccccc3)CC2)cc1OC [SA4503],–,–,–,–,–,1800 nM,17 nM

# From paper PMC9078399, “Discovery of N-cyclobutylaminoethoxyisoxazole derivatives as novel sigma-1 receptor ligands with neurite outgrowth efficacy in cells” (RSC Advances, 2018)
